Here are results for 41 compounds from patent publication US9617212B2, “Isoindolin-1-ones as macrophage migration inhibitory factor (MIF) inhibitors” (Controlled Chemicals, Inc., priority 2013, dated 2017).

The structures appear in SMILES notation.

The target in the first assay is T1, Human MIF (MIF tautomerase) (Homo sapiens, UniProt P14174).
T1 construct: purchased ProSpec
T1 sequence (P14174 2-115 limits assumed): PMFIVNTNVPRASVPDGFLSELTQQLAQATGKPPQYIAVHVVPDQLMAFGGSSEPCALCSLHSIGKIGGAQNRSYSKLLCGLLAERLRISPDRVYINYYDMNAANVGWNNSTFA
Nature of the assay: MIF Tautomerase Inhibitory Assay with L-Dopachrome Methyl Ester. In kind it is biochemical. Particulars: IC50, relative potency class, MIF tautomerase inhibition; L-dopachrome methyl ester substrate, pH 7.34, no pre-incubation. On the procedure: MIF Tautomerase Inhibitory Assay with L-Dopachrome Methyl Ester
Assay Method (pH 7.34, 0.017-0.033% DMSO, 0.034% EtOH): A fresh stock solution of L-dopachrome methyl ester in MeOH was prepared at 55-65 mM through oxidation of L-3,4-dihydroxyphenylalanine methyl ester hydrochloride with sodium periodate according to the procedure described in WO9729635A1. MeOH was removed from 0.5 mL of the L-dopachrome methyl ester/MeOH solution (55-65 mM) under a stream of argon and the residue taken up in appropriate amount of water to prepare a substrate solution (7-10 mM). Active Human MIF (from ProSpec) ([…]) was dissolved in 675 μL 0.1% bovine serum albumin (BSA) in water, and the resultant MIF solution (1 volume) mixed with 55 volumes of Na2HPO4 buffer (50 mM, pH 7.34) to form a 265 ng/mL MIF working solution. MIF working solution (280 μL) or a no-MIF working solution (prepared by mixing 0.1% BSA (1 volume) with the aforementioned Na2HPO4 buffer (55 volumes)) was transferred to wells in a column of 8 wells on a 96-well plate in a Plate Reader (SPECTRAmax Plus 384, Molecular Devices), and 5 μL of H2O/DMSO (99/1) containing no inhibitor or an inhibitor (whose concentration was verified by HPLC). Without pre-mixing or pre-incubation, 10 μL freshly prepared L-dopachrome methyl ester/H2O solution (7-10 mM) was added to each well with a multi-pipet. The assay samples were mixed immediately by sucking up and expelling the contents of the wells three times with a multi-pipet. The absorbance (A1) at 475 nm was then recorded for each sample every 2 s for 3 min. After 5-6 min, the samples were monitored again for 3 min with a reading every two seconds at 475 nm (A2). It can be shown that when [substrate]<<Km, plots of Ln(A1−A2) versus time are linear with slopes m (Eq 1). IC50 values were estimated from Eq 2-5, the inhibitor concentration [I] in the assay mixture and values of m in the presence (mi), absence (mo) of the inhibitor, the value of m observed for the non-MIF blank (mn), the MIF concentration (e), and the specificity constant for the MIF catalyzed reaction (kcat/Km). Ln(A1−A2)=−mt (Eq 1) F=(mi−mn)/(mo−mn) (Eq 2) Wherein mo−mn=ekcat/Km (Eq 3) and mi−mn=(ekcat/Km)[…] (Eq 4) IC50=[I]F/(1−F) (Eq 5)
The compounds listed in Table 1, provided herein, were prepared via procedures identical or similar to those described in the Examples 1-85. The listed compounds were >95% pure by HPLC. Each listed compound yielded a mass spectrum consistent with its structure. Concentrations of MIF tautomerase inhibitors used in the assay were verified by HPLC and the extinction coefficients of the inhibitors. The designated relative potency of MIF tautomerase inhibitors is based on the IC50 as determined by the method described in Biochemical Assay as follows: A, IC50<1 μM; B, 1 μM≦IC50<5 μM; C, 5 μM≦IC50<10 μM; D, 10 μM≦IC50<50 μM; E, 50 μM≦IC50<200 μM.
Turning to `CC(OC(=O)Cc1ccccc1)[C@H]1CC[C@H](CN2Cc3cc(F)c(O)cc3C2=O)CC1` (some centres unmarked), the IC50 is < 1000 nM.

Still in this assay, the particulars now being: relative potency class, MIF tautomerase inhibition; L-dopachrome methyl ester substrate, pH 7.34, no pre-incubation; read-out: IC50.
As for `CC(N[C@@H](C)C(=O)O)[C@H]1CC[C@H](CN2Cc3ccc(O)c(F)c3C2=O)CC1` (single isomer, unassigned), the concentration for half-maximal inhibition (IC50) was < 1000 nM. Still for that read-out and setting: to `O=C1c2cc(O)ccc2CN1C[C@H]1CC[C@H](C(=O)OC2CCCC2)CC1` belongs 5000 to 10000 nM. Turning to `O=C1c2cc(O)ccc2CN1C1CCCCC1`, the IC50 lay in the range of 5000 to 10000 nM.

As for `CCC(Oc1cccc(F)c1)[C@H]1CC[C@H](CN2Cc3ccc(O)cc3C2=O)CC1` (some centres unmarked), the half-inhibitory concentration (IC50) is < 1000 nM. Same read-out and setting: to `COc1cccc(OC(C)[C@H]2CC[C@H](CN3Cc4cc(F)c(O)c(F)c4C3=O)CC2)c1` (some centres unmarked) belongs < 1000 nM; to `COC(=O)[C@H](C)NC(C)C1CCC(CN2Cc3ccc(O)c(F)c3C2=O)CC1` (some centres unmarked), < 1000 nM; to `CC(O)[C@H]1CC[C@H](CN2Cc3cc(F)c(O)c(F)c3C2=O)CC1` (some centres unmarked), < 1000 nM.

With `O=C1c2cc(O)ccc2CN1C[C@H]1CC[C@H](C(=O)N2CCOCC2)CC1`, the IC50 lay in the range of 1000 to 5000 nM.

For `CC([C@H]1CC[C@H](CN2Cc3ccc(O)cc3C2=O)CC1)N1CCOCC1` (some centres unmarked), the IC50 is < 1000 nM.

For `C[C@@H](O)[C@H]1CC[C@H](CN2Cc3ccc(O)c(F)c3C2=O)CC1`, the IC50 is < 1000 nM.

As for `CC(Oc1cccc(F)c1)[C@H]1CC[C@H](CN2Cc3cc(F)c(O)cc3C2=O)CC1` (mixture of isomers) [drawing 62], the IC50 is < 1000 nM. Still for that read-out and setting: to `O=C1c2cc(O)ccc2CN1CC1CCC(O)CC1` (centres unmarked) belongs 1000 to 5000 nM; to `CC(Oc1cccc(F)c1)[C@H]1CC[C@H](CN2Cc3ccc(O)c(F)c3C2=O)CC1` (some centres unmarked), < 1000 nM; to `CC(N[C@H](CO)C(=O)O)C1CCC(CN2Cc3ccc(O)c(F)c3C2=O)CC1` (some centres unmarked), < 1000 nM. Turning to `O=C1OCc2c(OC[C@H]3CC[C@H](CN4Cc5ccc(O)cc5C4=O)CC3)cccc21`, the 50% inhibitory concentration (IC50) lay in the range of 1000 to 5000 nM.

For the compound `CC(N)[C@H]1CC[C@H](CN2Cc3ccc(O)c(F)c3C2=O)CC1` (some centres unmarked), the IC50 was < 1000 nM. The same measure, in the same setting: to `COC(=O)CCCN1Cc2ccc(O)cc2C1=O` belongs 5000 to 10000 nM. Turning to `O=C1c2cc(O)ccc2CN1CCc1cccc(F)c1`, the IC50 was 5000 to 10000 nM. The same measure, in the same setting: to `O=C1OCc2cc(OC[C@H]3CC[C@H](CN4Cc5ccc(O)cc5C4=O)CC3)ccc21` belongs 1000 to 5000 nM; to `O=C1c2cc(O)ccc2CN1C[C@H]1CC[C@H](COc2ccc(F)cc2)CC1`, < 1000 nM.

Consider `CC(=O)N[C@@H](COc1cccc(OC[C@H]2CC[C@H](CN3Cc4ccc(O)c(F)c4C3=O)CC2)c1)C(=O)O`, for which the half-inhibitory concentration (IC50) is < 1000 nM. `O=C1c2cc(O)ccc2CN1C[C@H]1CC[C@H](C(=O)OC2CCCCC2)CC1`: the concentration for half-maximal inhibition (IC50) lay in the range of 1000 to 5000 nM. Consider `CC(OC(=O)c1ccccc1)[C@H]1CC[C@H](CN2Cc3ccc(O)c(F)c3C2=O)CC1` (some centres unmarked), for which the half-inhibitory concentration (IC50) was < 1000 nM. On to `CC(NCC(N)=O)[C@H]1CC[C@H](CN2Cc3ccc(O)c(F)c3C2=O)CC1` (some centres unmarked), for which the IC50 is < 1000 nM. With `O=C1c2cc(O)ccc2CN1C[C@H]1CC[C@H](CN2CCOCC2)CC1`, the IC50 was in the range of 1000 to 5000 nM. In the case of `O=C1c2cc(O)ccc2CN1C[C@H]1CC[C@H](C(=O)N2CCCCC2)CC1`, the IC50 is < 1000 nM. As for `CCC(C(=O)OC(C)[C@H]1CC[C@H](CN2Cc3cc(F)c(O)cc3C2=O)CC1)c1ccccc1` (some centres unmarked), the IC50 is < 1000 nM. For `CC(=O)N[C@@H](COc1cccc(OC(C)[C@H]2CC[C@H](CN3Cc4ccc(O)c(F)c4C3=O)CC2)c1)C(=O)O` (some centres unmarked), the IC50 was < 1000 nM.

Turning to `C[C@@H](OC(=O)CCC(=O)O)[C@H]1CC[C@H](CN2Cc3ccc(O)c(F)c3C2=O)CC1` (single isomer, unassigned), the IC50 is < 1000 nM. Regarding `CC(N)[C@H]1CC[C@H](CN2Cc3cc(F)c(O)c(F)c3C2=O)CC1` (some centres unmarked), the IC50 lay within 1000 to 5000 nM. On to `CC(OC(=O)CCC(=O)O)[C@H]1CC[C@H](CN2Cc3ccc(O)c(F)c3C2=O)CC1` (some centres unmarked), for which the IC50 is < 1000 nM. On the same count and under the same terms, to `CC(C)[C@@H](CO)NC(C)[C@H]1CC[C@H](CN2Cc3ccc(O)cc3C2=O)CC1` (some centres unmarked) [drawing 150] belongs 1000 to 5000 nM; to `CC(NCCC(=O)O)C1CCC(CN2Cc3ccc(O)c(F)c3C2=O)CC1` (centres unmarked), < 1000 nM. For the compound `O=C1c2cc(O)ccc2CN1C[C@H]1CC[C@H](CO)CC1`, the IC50 lay in the range of 1000 to 5000 nM.

Take `O=C1c2cc(O)ccc2CN1[C@H]1CC[C@H](O)CC1`: the IC50 fell in the range of 10000 to 50000 nM. For the compound `CC(Oc1cccc(OCCN(C)C)c1)[C@H]1CC[C@H](CN2Cc3ccc(O)c(F)c3C2=O)CC1` (some centres unmarked), the IC50 is < 1000 nM. Regarding `CC(Oc1cccc(F)c1)[C@H]1CC[C@H](CN2Cc3cc(F)c(O)c(F)c3C2=O)CC1` (some centres unmarked), the IC50 is < 1000 nM. For `O=C1c2cc(O)ccc2CN1CC1CCCCCC1`, the concentration for half-maximal inhibition (IC50) lay in the range of 1000 to 5000 nM. Still for that read-out and setting: to `O=C1c2cc(O)ccc2CN1C[C@H]1CC[C@H](COc2ccccc2F)CC1` belongs < 1000 nM; to `CC(=O)OC(CCC1CCCCC1)[C@H]1CC[C@H](CN2Cc3ccc(O)cc3C2=O)CC1` (some centres unmarked), < 1000 nM.

In general, IC50 refers to the concentration at which inhibition is half-maximal.
